Test results published in patent publication US6410578B1, “Benzazole compounds and their use” (Novartis Animal Health US, Inc., priority 1998, dated 2002).

What was measured:
[1] = tested on: Boophilus microplus Biarra (larvae); assay: Arena test for vermin-repellent substances, Example A; conditions: in vitro arena test, ca. 60 to 100 larvae per well; for duration of repellent/deterrent action compared with DEET: DEET as standard; for repellent/deterrent action: evaluation of video images
Description: (§1) This method is carried out in titre plates having 6 wells with a cross-section of 5 cm each, using a computer-supported video system. Each well of the titre plate is lined with a circular filter paper or another suitable carrier material. The substance of formula I to be tested is dissolved in methanol, acetonitrile or another suitable solvent, with ultrasound treatment and heating being employed for poorly-soluble substances. In an amount of 1 to 100 mg/cm^2, the dissolved test substance is placed in the centre of the filter paper on a quadrant or circular area of ca. 2.4 cm^2 radius. 4 of the 6 wells are filled with different test substances or with the same test substance in different dilutions (e.g. 1, 3.2, 5, 10 and 20 mg/cm^2). The 5th well is treated with DEET (N,N-diethyl-m-toluamide) as standard substance. The 6th well is filled with the pure solvent and serves as a control. 60 to 100 larvae or 25 to 50 nymphs or 10 to 25 adults of the parasite to be tested, e.g. ticks, are added to each filter paper, and the system is covered with a pane of glass and positioned under a video camera.
(§2) At intervals of 5 seconds, the video camera takes individual pictures of all 6 wells. For a qualitative evaluation, these images are observed in a time-lapse as a continuous film, optically following the movements of the parasites on the filter paper and comparing them with the movements in the control well no. 6 or with the standard in the 5th well. A qualitative observation is thus made as to whether the test parasites move evenly over the whole surface of the filter paper and ignore the test substance, or whether and over what period they avoid the treated zone, and what influence the dilution of the test substance has on the behaviour of the test parasites. In this way, neutral and repellent substances are determined. At the same time, the duration of activity of the test substance is determined and compared with that of the standard. By plotting all the images for each individual well over one another, different areas of density are obtained. This represents the frequency at which the parasites visit certain places. This frequency is evaluated statistically and thus quantitatively by the Willcoxon method in a comparison with the control and with the standard.
In vitro Test; Test Animal: Boophilus microplus Biarra (Larvae)
The test is carried out as described above, with ca. 60 to 100 larvae being added per well.

[2] = tested on: Rhipicephalus sanguineus (nymphs); assay: Arena test for vermin-repellent substances, Example C; conditions: in vitro arena test, ca. 40 to 50 nymphs; for duration of repellent/deterrent action compared with DEET: DEET as standard; for repellent/deterrent action: evaluation of video images
Description: as §1, §2
In vitro Test; Test Animal: Rhipicephalus sanguineus (Nymphs)
The test is carried out analogously to example B, with ca. 40 to 50 nymphs.

[3] = tested on: Amblyomma hebraeum or variegatum (nymphs); assay: Arena test for vermin-repellent substances, Example B; conditions: in vitro arena test, ca. 25 nymphs per well; for duration of repellent/deterrent action compared with DEET: DEET as standard; for repellent/deterrent action: evaluation of video images
Description: as §1, §2
In vitro Test; Test Animal: Amblyomma hebraeum or variegatum (Nymphs)
The test is carried out as described above, with ca. 25 nymphs being added per well.

| Structure (SMILES) | duration of repellent/deterrent action compared with DEET [1] | repellent/deterrent action [1] | duration of repellent/deterrent action compared with DEET [2] | repellent/deterrent action [2] | duration of repellent/deterrent action compared with DEET [3] | repellent/deterrent action [3] |
| --- | --- | --- | --- | --- | --- | --- |
| Cc1nc2cc(N)ccc2s1 [5-amino-2-methylbenzothiazole] | lasts considerably longer than that of DEET | almost complete repellent/deterrent action | lasts considerably longer than that of DEET | almost complete repellent/deterrent action | lasts considerably longer than that of DEET | almost complete repellent/deterrent action |
| COc1cc2nc(C)sc2cc1OC [5,6-dimethoxy-2-methylbenzothiazole] | lasts considerably longer than that of DEET | almost complete repellent/deterrent action | lasts considerably longer than that of DEET | almost complete repellent/deterrent action | lasts considerably longer than that of DEET | almost complete repellent/deterrent action |
